Measurements: US6866845B1, “Compositions and methods for the treatment of sepsis” (The Regents of the University of Michigan, priority 1999, dated 2005)
Where no end group is shown, it is not given here.

Tests used:
[1] = system: human neutrophils; assay: chemotaxis of human neutrophils in chemotactic chambers; assay type: cell-based; settings: for chemotactic response to peptide in medium alone: 1 μM peptide; for reduction in the chemotactic responses of neutrophils to human C5a: 1 μM peptide with 10 μM human C5a; for chemotactic activity of KLH conjugate compared to C5a peptide: calculated synthetic peptide concentration 100 nM, peptide:KLH approximately 3:1
Description: This Example describes the ability of certain synthetic peptides representative of regions of human C5a peptide to reduce the chemotactic response of human neutrophils to human C5a peptide. Human neutrophils were isolated from human blood by traditional Ficoll-Hypaque sedimentation techniques. Using standardized methodology, neutrophils (5×10^6/ml) labeled with 1 μg/ml BCECF [2′,7′-(2 carboxyethyl)-5-(and-6)-carboxyfluroscein, acetoxymethy ester) at 37° C. for 30 min, were applied to the upper compartments of […] The two compartments were separated by a membrane with pore sizes of 3 μm. Neutrophil chemotactic responses were quantitated by cytofluorometry.
[…] Peptide A (SEQ ID NO:4) represents residues 1-20 of human C5a peptide, peptide M (SEQ ID NO: 5) represents residues 21-40 of human C5a peptide, and peptide C (SEQ ID NO:6) represents residues 55-74 of human C5a peptide.
This Example describes neutrophil chemotactic activity of peptides A, M, and C linked to keyholelimpet hemocyanin (KLH) employing the chemotactic assay described in Example 7. The peptide:KLH molar ratios employed were approximately 3:1. […]

[2] = system: human neutrophils; assay: competition with 125I-hC5a peptide binding to human neutrophils; settings: ratio of peptide to labelled hC5a 10:1
Text: This Examples describes certain peptides which are able to antagonize the ability of human C5a peptide to bind to human neutrophils. Three different peptides, labelled A, M, and C, were used to antagonize the binding of ^125I-hC5a peptide to human neutrophils. Again, peptide A (SEQ ID NO:4) represents residues 1-20 of human C5a peptide, peptide M (SEQ ID NO: 5) represents residues 21-40 of human C5a peptide, and peptide C (SEQ ID NO:6) represents residues 55-74 of human C5a peptide.
Human peripheral blood neutrophils (1×10^7 cells/ml) were incubated in Hank's buffered saline plus 0.1% bovine serum albumin with both ^123]-labelled hC5a peptide (300 μCi/nmol) and either peptide A, M, or C, in a final volume of 200 μl in a microfuge tube. The ratio of the shorter peptides (A, M, or C) to ^1251]-labelled hC5a peptide was 10:1. After incubation, cell suspension were layered over a 20% sucrose gradient and were sedimented by centrifugation at 11,000 g. The tubes were then frozen on dry ice, followed by cutting the tips containing the pellet. Cell-bound label was then determined by placing the tips in a gamma counter.

[3] = system: human neutrophils; assay: H2O2 production of human neutrophils stimulated by PMA; assay type: cell-based; settings: for inhibition of PMA-elicited H2O2 response: neutrophils pretreated with peptide, then PMA
Text: This Example describes the effect of human C5a peptide, and certain shorter synthetic human C5a peptides A, M, or C, to inhibit the H2O2 production of human neutrophils stimulated by phorbol myristate acetate (PMA). Again, peptide A (SEQ ID NO:4) represents residues 1-20 of human C5a peptide, peptide M (SEQ ID NO: 5) represents residues 21-40 of human C5a peptide, and peptide C (SEQ ID NO:6) represents residues 55-74 of human C5a peptide. Human neutrophils were isolated and then pretreated with C5a peptide or one of the shorter synthetic peptides (A, M, or C). Cells were then stimulated with PMA and the production of H2O2 was measured.

[4] = target: human peripheral blood neutrophils (surface sites that bind human C5a peptide) (human) (UniProt P21730); assay: cell-based or functional assay
[5] = target: rat C5a peptide (full length) (rat) (UniProt P08650); assay: flow cytometry on rat blood neutrophils, control stain
Sequence of UniProt P08650 (P08650 679-755 limits assumed): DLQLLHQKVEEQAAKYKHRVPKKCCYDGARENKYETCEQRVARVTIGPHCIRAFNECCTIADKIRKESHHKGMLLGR

Sequence of UniProt P21730 (P21730 whole entry): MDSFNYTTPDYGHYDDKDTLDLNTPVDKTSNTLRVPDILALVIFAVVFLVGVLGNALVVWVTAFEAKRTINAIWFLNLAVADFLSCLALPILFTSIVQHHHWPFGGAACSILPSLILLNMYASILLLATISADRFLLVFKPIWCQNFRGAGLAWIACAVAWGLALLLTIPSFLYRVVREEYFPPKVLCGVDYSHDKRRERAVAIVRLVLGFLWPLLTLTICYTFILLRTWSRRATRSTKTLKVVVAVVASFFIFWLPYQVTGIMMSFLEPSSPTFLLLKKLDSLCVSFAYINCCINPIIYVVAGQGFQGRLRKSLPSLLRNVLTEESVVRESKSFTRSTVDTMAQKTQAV

Molecule	chemotactic response to peptide in medium alone [1]	reduction in the chemotactic responses of neutrophils to human C5a [1]	reducing the binding of hC5a peptide to human neutrophils [2]	inhibition of PMA-elicited H2O2 response [3]	chemotactic activity of KLH conjugate compared to C5a peptide [1]	further results
CVVASQLRANISHKDMQLGR (listed as Homo sapiens) [peptide C, residues 55-74 of human C5a peptide]	did not per se induce any chemotactic responses	approximately 20%	no statistically significant interference	to varying degrees	–	–
C peptide conjugate: peptide C (SEQ ID NO:6) linked to keyhole limpet hemocyanin, peptide:KLH approximately 3:1 (CVVASQLRANISHKDMQLGR; also: linked to keyhole limpet hemocyanin, peptide:KLH ~3:1)	–	–	–	–	almost as active	–
peptide C (residues 55-74 of human C5a peptide)	–	–	–	–	–	chemotactic responses of neutrophils to human C5a [4]: 20%
preimmune IgG (antibody)	–	–	–	–	–	Mean Channel Fluorescence (binding value) (MCF (mean ± SEM)) [5]: 4.45
M peptide conjugate: peptide M (SEQ ID NO:5) linked to keyhole limpet hemocyanin, peptide:KLH approximately 3:1 (CCYDGASVNNDETCEQRAAR; cysteine pairing not given here; also: linked to keyhole limpet hemocyanin, peptide:KLH ~3:1)	–	–	–	–	no chemotactic activity	–
MLQKKIEEIAAKYKHSVVKK (listed as Homo sapiens) [peptide A, residues 1-20 of human C5a peptide]	did not per se induce any chemotactic responses	approximately 20%	significantly (p<0.05) competitive	to varying degrees	–	–
A peptide KLH conjugate: peptide A (SEQ ID NO:4) linked to keyhole limpet hemocyanin, peptide:KLH approximately 3:1 (MLQKKIEEIAAKYKHSVVKK; also: linked to keyhole limpet hemocyanin, peptide:KLH ~3:1)	–	–	–	–	most chemotactically active	–
CCYDGASVNNDETCEQRAAR (listed as Homo sapiens) [peptide M, residues 21-40 of human C5a peptide]	did not per se induce any chemotactic responses	approximately 20%	significantly (p<0.05) competitive	strongest suppression	–	–
MLQKKIEEIAAKYKHSVVKKCCYDGASVNNDETCEQRAARISLGPRCIKAFTECCVVASQLRANISHKDMQLGR (protein, listed as Homo sapiens, full length human complement component C5a peptide) MLQKKIEEIAAKYKHSVVKKCCYDGASVNNDETCEQRAARISLGPRCIKAFTECCVVASQLRANISHKDMQLGR	–	–	–	inhibitable	–	effect on H2O2 production, peptide alone ([3]; without PMA): no effect
